In patent publication US7569578B2, “Heterocyclic anti-migraine agents” (Bristol-Meyers Squibb Company, priority 2003, dated 2009):

Molecular target: T1, Human CGRP1 Receptor (Homo sapiens, UniProt O60894+Q16602)
T1 construct: endogenous in cells; host or cells: SK-N-MC cells (membrane homogenate)
Experiment: CGRP Binding Assay ([125I]-CGRP radioligand displacement, SK-N-MC membrane homogenate)
Settings: [125I]-CGRP displacement, SK-N-MC homogenate, room temperature 2 h; read-out: Human CGRP1 Receptor IC50
Method: Tissue Culture. SK-N-MC cells were grown at 37° C. in 5% CO2 as a monolayer in medium consisting of MEM with Earle's salts and L-glutamine (Gibco) supplemented with 10% fetal bovine serum (Gibco).
Cell Pellets. […] The cells were transferred from plates to polypropylene tubes (16×100 mm) and homogenized using a polytron. Homogenates were centrifuged at 32,000×g for 30 min. The pellets were resuspended in cold hypotonic lysis buffer with 0.1% mammalian protease inhibitor cocktail (Sigma) and assayed for protein concentration. The SK-N-MC homogenate was then aliquoted and stored at −80° C. until needed.
Radioligand Binding Assay. The compounds of invention were solubilized and carried through serial dilutions using 100% DMSO. Aliquots from the compound serial dilutions were further diluted 25 fold into assay buffer (50 mM Tris-Cl pH 7.5, 5 mM MgCl2, 0.005% Triton X-100) and transferred (volume 50 μl) into 96 well assay plates. […] SK-N-MC pellets were thawed, diluted in assay buffer with fresh 0.1% mammalian protease inhibitor cocktail (Sigma), and homogenized again. SK-N-MC homogenate (5 μg/well) was added in a volume of 100 μl. The assay plates were then incubated at room temperature for 2 h. Assays were stopped by addition of excess cold wash buffer (20 mM Tris-Cl pH 7.5, 0.1% BSA) immediately followed by filtration over glass fiber filters (Whatman GF/B) previously soaked in 0.5% PEI. Non-specific binding was defined with 1 μM beta-CGRP. Protein bound radioactivity was determined using a gamma or scintillation counter.

T1 sequence (Q16602 23-461): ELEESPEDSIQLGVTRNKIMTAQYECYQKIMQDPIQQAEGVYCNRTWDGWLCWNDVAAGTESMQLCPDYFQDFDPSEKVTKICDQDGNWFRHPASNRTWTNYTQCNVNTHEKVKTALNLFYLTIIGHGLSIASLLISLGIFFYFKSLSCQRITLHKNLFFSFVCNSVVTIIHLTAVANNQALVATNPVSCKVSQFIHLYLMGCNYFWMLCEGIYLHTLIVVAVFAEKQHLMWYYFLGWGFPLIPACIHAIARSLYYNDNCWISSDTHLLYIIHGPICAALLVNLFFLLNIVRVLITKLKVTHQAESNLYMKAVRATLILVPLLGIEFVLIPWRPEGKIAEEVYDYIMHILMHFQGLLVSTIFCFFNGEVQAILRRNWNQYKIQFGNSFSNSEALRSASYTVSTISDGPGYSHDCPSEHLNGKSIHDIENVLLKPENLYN
T1 sequence (O60894 27-148): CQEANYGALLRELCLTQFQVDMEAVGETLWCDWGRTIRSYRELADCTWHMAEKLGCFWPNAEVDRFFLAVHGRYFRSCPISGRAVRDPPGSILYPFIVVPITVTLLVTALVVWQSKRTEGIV

CC1=CC(CC(CC(=O)N2CCC(N3Cc4cccc(F)c4NC3=O)CC2)c2nccn2Cc2ccc(C(C)(C)C)cc2)=CC2C=NNC12 (stereo not drawn) [Example 96, 3-(1-(3-(1-(4-tert-Butylbenzyl)-1H-imidazol-2-yl)-4-(7-methyl-3a,7a-dihydro-1H-indazol-5-yl)butanoyl)piperidin-4-yl)-8-fluoro-3,4-dihydroquinazolin-2(1H)-one] and Cc1cc(CC(NC(=O)N2CCC(N3Cc4cccc(F)c4NC3=O)CC2)c2nnc3ccccn23)cc2cn[nH]c12 (racemic) [Example 83, (±)-N-(1-([1,2,4]Triazolo [4,3-a]pyridin-3-yl)-2-(7-methyl-1H-indazol-5-yl)ethyl)-4-(8-fluoro-2-oxo-1,2-dihydroquinazolin-3(4H)-yl)piperidine-1-carboxamide] cannot be ordered by IC50: under 10 nM for the first, under 10 nM for the second.

Compared with Cc1noc(C(Cc2cc(C)c3[nH]ncc3c2)NC(=O)N2CCC(N3Cc4ccccc4NC3=O)CC2)n1 (racemic) [Example 11, (±)-4-(2-Oxo-1,4-dihydro-2H-quinazolin-3-yl)-piperidine-1-carboxylic acid [2-(7-methyl-1H-indazol-5-yl)-1-(3-methyl-[1,2,4]oxadiazol-5-yl)-ethyl]-amide], Cc1cc(CC(NC(=O)N2CCC(N3Cc4ccccc4NC3=O)CC2)c2nc(Cc3ccccc3)no2)cc2cn[nH]c12 (racemic) [Example 10, (±)-4-(2-Oxo-1,4-dihydro-2H-quinazolin-3-yl)-piperidine-1-carboxylic acid [1-(3-benzyl-[1,2,4]oxadiazol-5-yl)-2-(7-methyl-1H-indazol-5-yl)-ethyl]-amide] is lower in IC50: 10 to 100 nM for the first, under 10 nM for the second.

Compared with Cc1cc(CC(NC(=O)N2CCC(N3Cc4ccccc4NC3=O)CC2)c2nccn2Cc2ccccn2)cc2cn[nH]c12 (racemic) [Example 92, (±)-N-(2-(7-Methyl-1H-indazol-5-yl)-1-(1-(pyridin-2-ylmethyl)-1H-imidazol-2-yl)ethyl)-4-(2-oxo-1,2-dihydroquinazolin-3(4H)-yl)piperidine-1-carboxamide], Cc1cc(CC(CC(=O)N2CCC(N3Cc4ccccc4NC3=O)CC2)c2nc(Cc3ccncc3)no2)cc2cn[nH]c12 (racemic) [Example 6, (±)-3-{1-[4-(7-Methyl-1H-indazol-5-yl)-3-(3-pyridin-4-ylmethyl-[1,2,4]oxadiazol-5-yl)-butyryl]-piperidin-4-yl}-3,4-dihydro-1H-quinazolin-2-one] is higher in IC50: under 10 nM for the first, 10 to 100 nM for the second. The first is the more potent here.

Compared with CC1=CC(CC(CC(=O)N2CCC(N3Cc4ccccc4NC3=O)CC2)c2nccn2Cc2ccc(C(C)(C)C)cc2)=CC2C=NNC12 (stereo not drawn) [Example 95, 3-(1-(3-(1-(4-tert-Butylbenzyl)-1H-imidazol-2-yl)-4-(7-methyl-3a,7a-dihydro-1H-indazol-5-yl)butanoyl)piperidin-4-yl)-3,4-dihydroquinazolin-2(1H)-one], Cc1cc(CC(OC(=O)N2CCC(N3Cc4cccc(F)c4NC3=O)CC2)c2cccc(CC(C)C)n2)cc2cn[nH]c12 (racemic) [Example 43, (±)-1-(6-Isobutylpyridin-2-yl)-2-(7-methyl-1H-indazol-5-yl)ethyl 4-(8-fluoro-2-oxo-1,2-dihydroquinazolin-3(4H)-yl)piperidine-1-carboxylate] is higher in IC50: under 10 nM for the first, 10 to 100 nM for the second. The first is the more potent here.

First: Cc1cc(CC(NC(=O)N2CCC(N3Cc4ccccc4NC3=O)CC2)c2ccc3ccccc3n2)cc2cn[nH]c12 (racemic) [Example 34, (±)-N-(2-(7-Methyl-1H-indazol-5-yl)-1-(quinolin-2-yl)ethyl)-4-(2-oxo-1,2-dihydroquinazolin-3(4H)-yl)piperidine-1-carboxamide]
Second: Cc1cc(CC(NC(=O)N2CCC(N3Cc4ccccc4NC3=O)CC2)c2nc(Cc3ccncc3)no2)cc2cn[nH]c12 (racemic) [Example 12, (±)-4-(2-Oxo-1,4-dihydro-2H-quinazolin-3-yl)-piperidine-1-carboxylic acid [2-(7-methyl-1H-indazol-5-yl)-1-(3-pyridin-4-ylmethyl-[1,2,4]oxadiazol-5-yl)-ethyl]-amide]
The IC50 of the first is lower: under 10 nM for the first, 10 to 100 nM for the second. The first is the more potent here.

First: Cc1cc(CC(CC(=O)N2CCC(N3Cc4ccccc4NC3=O)CC2)c2nc(CN(C)C)no2)cc2cn[nH]c12 (racemic) [Example 7, (±)-3-{1-[3-(3-Dimethylaminomethyl-[1,2,4]oxadiazol-5-yl)-4-(7-methyl-1H-indazol-5-yl)-butyryl]-piperidin-4-yl}-3,4-dihydro-1H-quinazolin-2-one]
Second: Cc1cc(CC(NC(=O)N2CCC(N3Cc4ccccc4NC3=O)CC2)c2nccn2Cc2cccc(C#N)c2)cc2cn[nH]c12 (racemic) [Example 74, (±)-N-(1-(1-(3-Cyanobenzyl)-1H-imidazol-2-yl)-2-(7-methyl-1H-indazol-5-yl)ethyl)-4-(2-oxo-1,2-dihydroquinazolin-3(4H)-yl)piperidine-1-carboxamide]
The IC50 of the first is higher: 10 to 100 nM for the first, under 10 nM for the second. The second is the more potent here.

Cc1cc(CC(OC(=O)N2CCC(N3Cc4cccc(F)c4NC3=O)CC2)c2cccc(Br)n2)cc2cn[nH]c12 (racemic) [Example 39, (±)-1-(6-Bromopyridin-2-yl)-2-(7-methyl-1H-indazol-5-yl)ethyl 4-(8-fluoro-2-oxo-1,2-dihydroquinazolin-3(4H)-yl)piperidine-1-carboxylate] and Cc1cc(CC(OC(=O)N2CCC(N3Cc4ccccc4NC3=O)CC2)c2ccc3ccccc3n2)cc2cn[nH]c12 (stereo not drawn) [Example 61, 2-(7-Methyl-1H-indazol-5-yl)-1-(quinolin-2-yl)ethyl 4-(2-oxo-1,2-dihydroquinazolin-3(4H)-yl)piperidine-1-carboxylate] cannot be ordered by IC50: under 10 nM for the first, under 10 nM for the second.

First: Cc1cc(CC(OC(=O)N2CCC(N3Cc4cccc(F)c4NC3=O)CC2)c2cc3ccccc3cn2)cc2cn[nH]c12 (stereo not drawn) [Example 52, 1-(Isoquinolin-3-yl)-2-(7-methyl-1H-indazol-5-yl)ethyl 4-(8-fluoro-2-oxo-1,2-dihydroquinazolin-3(4H)-yl)piperidine-1-carboxylate]
Second: Cc1cc(CC(NC(=O)N2CCC(N3Cc4ccccc4NC3=O)CC2)c2cccc(-c3ccccc3)n2)cc2cn[nH]c12 (racemic) [Example 37, (±)-N-(2-(7-Methyl-1H-indazol-5-yl)-1-(6-phenylpyridin-2-yl)ethyl)-4-(2-oxo-1,2-dihydroquinazolin-3(4H)-yl)piperidine-1-carboxamide]
The IC50 of the first is lower: under 10 nM for the first, 10 to 100 nM for the second.

First: Cc1cc(CC(OC(=O)N2CCC(N3Cc4ccccc4NC3=O)CC2)c2cc(C(=O)O)ccn2)cc2cn[nH]c12 (racemic) [Example 48, (±)-2-(2-(7-Methyl-H-indazol-5-yl)-1-(4-(2-oxo-1,2-dihydroquinazolin-3(4H)-yl)piperidine-1-carbonyloxy)ethyl)isonicotinic acid]
Second: (±)-4-(2-Oxo-1,4-dihydro-2H-quinazolin-3-yl)-piperidine-1-carboxylic acid [2-(7-ethyl-3-methyl-1H-indazol-5-yl)-1-pyridin-4-yl methyl-1H-tetrazol-5-yl)-ethyl]-amide [Example 19]
The IC50 of the first is higher: 10 to 100 nM for the first, under 10 nM for the second. The second is the more potent here.

CCOC(=O)c1noc([C@@H](Cc2cc(C)c3[nH]ncc3c2)OC(=O)N2CCC(c3cc4ccccc4[nH]c3=O)CC2)n1 [Example 103, (R)-1-(3-(Ethoxycarbonyl)-1,2,4-oxadiazol-5-yl)-2-(7-methyl-1H-indazol-5-yl)ethyl 4-(2-oxo-1,2-dihydroquinolin-3-yl)piperidine-1-carboxylate] and CCc1cc(CC(NC(=O)N2CCC(N3Cc4ccccc4NC3=O)CC2)c2nnnn2CC(=O)c2ccccc2)cc2c(C)n[nH]c12 (racemic) [Example 21, (±)-4-(2-Oxo-1,4-dihydro-2H-quinazolin-3-yl)-piperidine-1-carboxylicacid [2-(7-ethyl-3-methyl-1H-indazol-5-yl)-1-[1-(2-oxo-2-phenyl-ethyl)-1H-tetrazol-5-yl)-ethyl]-amide] fall in the same range of IC50: 10 to 100 nM for the first, 10 to 100 nM for the second.

First: Cc1cc(CC(OC(=O)N2CCC(N3Cc4cccc(F)c4NC3=O)CC2)c2ccco2)cc2cn[nH]c12 (stereo not drawn) [Example 60, 1-(Furan-2-yl)-2-(7-methyl-1H-indazol-5-yl)ethyl 4-(8-fluoro-2-oxo-1,2-dihydroquinazolin-3(4H)-yl)piperidine-1-carboxylate]
Second: CC1=CC(CC(CC(=O)N2CCC(N3Cc4ccccc4NC3=O)CC2)c2nc3ccccc3[nH]2)=CC2C=NNC12 (stereo not drawn) [Example 98, 3-(1-(3-(1H-Benzo[d]imidazol-2-yl)-4-(7-methyl-3a,7a-dihydro-1H-indazol-5-yl)butanoyl)piperidin-4-yl)-3,4-dihydroquinazolin-2(1H)-one]
The IC50 of the first is higher: 10 to 100 nM for the first, under 10 nM for the second. The second is the more potent here.

Cc1cc(CC(OC(=O)N2CCC(N3Cc4ccccc4NC3=O)CC2)c2cccc(Br)n2)cc2cn[nH]c12 (racemic) [Example 40, (±)-1-(6-Bromopyridin-2-yl)-2-(7-methyl-1H-indazol-5-yl)ethyl 4-(2-oxo-1,2-dihydroquinazolin-3(4H)-yl)piperidine-1-carboxylate] and Cc1cc(Cn2ccnc2C(Cc2cc(C)c3[nH]ncc3c2)NC(=O)N2CCC(N3Cc4ccccc4NC3=O)CC2)ccn1 (racemic) [Example 94, (±)-N-(2-(7-Methyl-1H-indazol-5-yl)-1-(1-((2-methylpyridin-4-yl)methyl)-1H-imidazol-2-yl)ethyl)-4-(2-oxo-1,2-dihydroquinazolin-3(4H)-yl)piperidine-1-carboxamide] cannot be ordered by IC50: under 10 nM for the first, under 10 nM for the second.
